Literature values in US20020010164A1, “Low oxygen content compositions of 1alpha, 25-dihydroxycholecalciferol” (priority 1999, published 2002).

In the case of `C=C1/C(=C\C=C2/CCCC3(C)C2CCC3C(C)CCCC(C)(C)O)CC(O)CC1O` (stereo not drawn) [1α, 25-dihydroxycholecalciferol], the “solubility in organic solvents” value (organic solvents) is listed as “soluble” and the solubility in water (water) is listed as “practically insoluble”.
